From the supplement of paper PMC11061612

Assays:
Hey (Ovarian Carcinoma) = experiment: Bliss excess, mean over the matrix (fraction); higher = more synergy
Method in brief: (§1)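 Cell lines in DMEM/F12 or RPMI with 10% FBS were plated in 1536-well plates, held 24 hours at 37°C, 5% CO2, then given two-drug dose matrices for 72 hours (DMSO typically 0.2%). Viability was read by CellTiter-Glo 2.0 luminescence and scaled as inhibition from 0 (vehicle wells) to 1 (blank wells). Combination Emax is the second-highest inhibition in the matrix; Bliss excess is observed combination effect minus expected EA + EB − EA·EB, EA and EB being single-agent effects.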

[1] = tested on: NCI-H1092 (Small Cell Lung Carcinoma); experiment: as above
Method in brief: as §1

[2] = tested on: ML-2 (Acute Myeloid Leukemia); experiment: combination Emax (second highest fraction inhibited in the dose matrix, 72 h); higher = more inhibition; extreme values may be limits of the assay
Method in brief: as §1

[3] = tested on: SK-LU-1 (Lung Adenocarcinoma); experiment: as above
Method in brief: as §1

[4] = tested on: MV-4-11 (Acute Myeloid Leukemia); experiment: as above
Method in brief: as §1

[5] = tested on: NCI-H1355 (Lung Adenocarcinoma); experiment: as above
Method in brief: as §1

[6] = tested on: DU-145 (Prostate Carcinoma); experiment: as above
Method in brief: as §1

[7] = tested on: OE33 (Esophageal Adenocarcinoma); experiment: as above
Method in brief: as §1

[8] = tested on: KMRC-1 (Kidney Carcinoma); experiment: as above
Method in brief: as §1

[9] = tested on: SW982 (Other Solid Carcinomas); experiment: as above
Method in brief: as §1

[10] = tested on: G-401 (Other Solid Carcinomas); experiment: as above
Method in brief: as §1

[11] = tested on: Ca-Ski (Cervical Carcinoma); experiment: as above
Method in brief: as §1

[12] = tested on: NCI-H522 (Lung Adenocarcinoma); experiment: as above
Method in brief: as §1

[13] = tested on: SNU-387 (Hepatocellular Carcinoma); experiment: as above
Method in brief: as §1

[14] = tested on: SW872 (Other Solid Carcinomas); experiment: as above
Method in brief: as §1

[15] = tested on: Mo-T (Other Blood Carcinomas); experiment: as above
Method in brief: as §1

[16] = tested on: LC-1-sq (Squamous Cell Lung Carcinoma); experiment: as above
Method in brief: as §1

EW-1 (Ewing's Sarcoma) = experiment: as above
Method in brief: as §1

[17] = tested on: COLO-668 (Small Cell Lung Carcinoma); experiment: as above
Method in brief: as §1

COLO-679 (Melanoma) = experiment: as above
Method in brief: as §1
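For Bliss excess, mean over the matrix in this document: after 72 h of two-drug dosing.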

SMILES | Bliss excess (Hey (Ovarian Carcinoma)) | Bliss excess [1] | combination Emax [2] | combination Emax [3] | combination Emax [4] | combination Emax [5] | combination Emax [6] | combination Emax [7] | combination Emax [8] | combination Emax [9] | combination Emax [10] | combination Emax [11] | combination Emax [12] | combination Emax [13] | combination Emax [14] | combination Emax [15] | combination Emax [16] | combination Emax (EW-1 (Ewing's Sarcoma)) | combination Emax [17] | combination Emax (COLO-679 (Melanoma))
C[C@@H]1COCCN1c1cc(C2([S@](C)(=N)=O)CC2)nc(-c2ccnc3[nH]ccc23)n1 [AZD6738] + O=C(c1cc(Cc2n[nH]c(=O)c3ccccc23)ccc1F)N1CCN(C(=O)C2CC2)CC1 [Olaparib] (first compound max 10 µM, 7x7, partner max 10 µM) | 0.0379 | -0.0333 | 0.955 | 0.473 | 0.985 | 0.712 | 0.548 | 0.721 | 0.566 | 0.781 | 0.491 | 0.647 | 0.23 | 0.575 | 0.63 | 0.552 | 0.839 | 0.898 | 0.659 | 0.661
CCN(CCO)CCCOc1ccc2c(Nc3cc(CC(=O)Nc4cccc(F)c4)[nH]n3)ncnc2c1 [AZD2811] + C=CCn1c(=O)c2cnc(Nc3ccc(N4CCN(C)CC4)cc3)nc2n1-c1cccc(C(C)(C)O)n1 [AZD1775] (first compound max 1 µM, partner max 1 µM) | 0.0154 | -0.0183 | 1 | 0.416 | 0.936 | 0.568 | 0.251 | 0.467 | 0.184 | 0.742 | 0.566 | 0.697 | 0.218 | 0.575 | 0.289 | 0.311 | 0.864 | 0.827 | 0.42 | 0.491
COc1nnc2ccc(N3CCC(c4ccc(OCCN5CCN(C)C(=O)[C@H]5C)cc4)CC3)nn12 [AZD5153] + CCN(CCO)CCCOc1ccc2c(Nc3cc(CC(=O)Nc4cccc(F)c4)[nH]n3)ncnc2c1 [AZD2811] (first compound max 1 µM, 7x7, partner max 1 µM) | -0.0417 | 0.0499 | 1 | 0.404 | 1 | 0.509 | 0.265 | 0.301 | 0.316 | 0.807 | 0.806 | 0.591 | 0.344 | 0.487 | 0.578 | 0.599 | 0.609 | 0.64 | 0.264 | 0.485
COc1nnc2ccc(N3CCC(c4ccc(OCCN5CCN(C)C(=O)[C@H]5C)cc4)CC3)nn12 [AZD5153] + Cc1c2c(nn1C)CSCc1cc(n(C)n1)CSc1cc(c3ccccc3c1)OCCCc1c(C(=O)O)n(C)c3c-2c(Cl)ccc13 [AZD5991] (first compound max 1 µM, 7x7, partner max 1 µM) | -0.0231 | 0.003 | 1 | 0.388 | 1 | 0.358 | 0.242 | 0.242 | 0.322 | 0.771 | 0.956 | 0.835 | 0.942 | 0.614 | 0.697 | 0.616 | 0.771 | 0.751 | 0.564 | 0.874
CN(C)CCCOc1ccc(-c2ccc3ncc4c(c3c2)n(C2CCOCC2)c(=O)n4C)cn1 [AZD0156] + C=CCn1c(=O)c2cnc(Nc3ccc(N4CCN(C)CC4)cc3)nc2n1-c1cccc(C(C)(C)O)n1 [AZD1775] (first compound max 1 µM, partner max 1 µM) | -0.0242 | -0.0351 | 1 | 0.384 | 0.924 | 0.532 | 0.239 | 0.472 | 0.259 | 0.71 | 0.646 | 0.7 | 0.225 | 0.464 | 0.267 | 0.402 | 0.91 | 0.886 | 0.405 | 0.552
NC1(C(=O)N[C@@H](CCO)c2ccc(Cl)cc2)CCN(c2ncnc3[nH]ccc23)CC1 [Capivasertib] + C[C@@H]1COCCN1C2=NC(=NC(=C2)C3(CC3)[S@](=N)(=O)C)C4=C5C=CNC5=NC=C4 [AZD6738] (first compound max 10 µM, 7x7, partner max 10 µM) | -0.0402 | -0.0055 | 0.928 | 0.511 | 0.975 | 0.773 | 0.398 | 0.748 | 0.579 | 0.727 | 0.751 | 0.582 | 0.251 | 0.613 | 0.452 | 0.417 | 0.74 | 0.938 | 0.677 | 0.634
COc1nnc2ccc(N3CCC(c4ccc(OCCN5CCN(C)C(=O)[C@H]5C)cc4)CC3)nn12 [AZD5153] + Cn1cnc2c(F)c(Nc3ccc(Br)cc3Cl)c(C(=O)NOCCO)cc21 [Selumetinib] (first compound max 1 µM, 7x7, partner max 10 µM) | -0.0092 | -0.0592 | 1 | 0.46 | 1 | 0.483 | 0.28 | 0.414 | 0.346 | 0.789 | 0.841 | 0.813 | 0.469 | 0.514 | 0.784 | 0.659 | 0.677 | 0.618 | 0.899 | 0.884
C=CCn1c(=O)c2cnc(Nc3ccc(N4CCN(C)CC4)cc3)nc2n1-c1cccc(C(C)(C)O)n1 [AZD1775] + C[C@@H]1COCCN1C2=NC(=NC(=C2)C3(CC3)[S@](=N)(=O)C)C4=C5C=CNC5=NC=C4 [AZD6738] (first compound max 1 µM, partner max 10 µM) | 0.0385 | 0.0124 | 1 | 0.488 | 0.991 | 0.777 | 0.604 | 0.819 | 0.669 | 0.807 | 0.793 | 0.869 | 0.487 | 0.7 | 0.83 | 0.61 | 0.938 | 0.935 | 0.893 | 0.723
CC(=O)c1c(C)c2cnc(Nc3ccc(N4CCNCC4)cn3)nc2n(C2CCCC2)c1=O [Palbociclib] + Cn1cnc2c(F)c(Nc3ccc(Br)cc3Cl)c(C(=O)NOCCO)cc21 [Selumetinib] (first compound max 10 µM, 7x7, partner max 10 µM) | 0.0222 | -0.0322 | 0.869 | 0.362 | 0.955 | 0.325 | 0.12 | 0.259 | 0.218 | 0.579 | 0.859 | 0.301 | 0.127 | 0.221 | 0.169 | 0.329 | 0.235 | 0.551 | 0.363 | 0.75
Cn1cnc2c(F)c(Nc3ccc(Br)cc3Cl)c(C(=O)NOCCO)cc21 [Selumetinib] + C[C@@H]1COCCN1C2=NC(=NC(=C2)C3(CC3)[S@](=N)(=O)C)C4=C5C=CNC5=NC=C4 [AZD6738] (first compound max 10 µM, 7x7, partner max 10 µM) | -0.0014 | -0.0466 | 0.982 | 0.376 | 0.97 | 0.596 | 0.347 | 0.775 | 0.373 | 0.593 | 0.684 | 0.638 | 0.0701 | 0.454 | 0.276 | 0.362 | 0.684 | 0.892 | 0.735 | 0.82
Cc1c2c(nn1C)CSCc1cc(n(C)n1)CSc1cc(c3ccccc3c1)OCCCc1c(C(=O)O)n(C)c3c-2c(Cl)ccc13 [AZD5991] + Cc1cc2ncnn2cc1Nc1ncc2c(n1)n(C1CCOCC1)c(=O)n2C [AZD7648] (first compound max 1 µM, 7x7, partner max 10 µM) | -0.015 | -0.0458 | 1 | 0.399 | 1 | 0.393 | 0.23 | 0.237 | 0.203 | 0.371 | 0.616 | 0.331 | 0.362 | 0.393 | 0.258 | 0.262 | 0.269 | 0.421 | 0.187 | 0.259
Cn1cnc2c(F)c(Nc3ccc(Br)cc3Cl)c(C(=O)NOCCO)cc21 [Selumetinib] + C=CCn1c(=O)c2cnc(Nc3ccc(N4CCN(C)CC4)cc3)nc2n1-c1cccc(C(C)(C)O)n1 [AZD1775] (first compound max 10 µM, partner max 1 µM) | -0.0363 | -0.0961 | 0.994 | 0.46 | 0.915 | 0.479 | 0.239 | 0.445 | 0.203 | 0.633 | 0.828 | 0.711 | 0.177 | 0.544 | 0.29 | 0.482 | 0.696 | 0.883 | 0.47 | 0.823
Cc1c2c(nn1C)CSCc1cc(n(C)n1)CSc1cc(c3ccccc3c1)OCCCc1c(C(=O)O)n(C)c3c-2c(Cl)ccc13 [AZD5991] + C1CN(CCC1(C(=O)N[C@@H](CCO)C2=CC=C(C=C2)Cl)N)C3=NC=NC4=C3C=CN4 [Capivasertib] (first compound max 1 µM, 7x7, partner max 3 µM) | -0.0349 | 0.0204 | 1 | 0.303 | 1 | 0.227 | 0.187 | 0.112 | 0.432 | 0.192 | 0.56 | 0.609 | 0.507 | 0.345 | 0.282 | 0.281 | 0.217 | 0.415 | 0.303 | 0.19
